Article PMC10683027, “Discovery of tert-Butyl Ester Based 6-Diazo-5-oxo-L-norleucine Prodrugs for Enhanced Metabolic Stability and Tumor Delivery” (Journal of Medicinal Chemistry, 2023)
Values after ≈ are worked out from the molar mass of the structure shown. Values joined by “and” are separate entries in the source; they are usually repeats but may differ in a detail not shown here. Equal entries are not always repeated. “Also recorded” adds a separate entry of the source.

Key:
[1] = tested on: glutamine and FGAR in EL4 tumors; experiment: Tumor target engagement: glutamine and FGAR quantification; assay type: in vivo, C57BL/6/CES1–/– mice; conditions: P11 2.9 mg/kg SC
Description: Glutamine and FGAR were extracted from the tumor by protein precipitation. Per milligram of tissue, 5 μL of methanol containing 10 μmol/L deuterated N-acetyl aspartic acid and deuterated glutamate (internal standards) was added. Tissue samples were homogenized as described above and centrifuged (16000g, 5 min). Standard concentration curves of glutamine and FGAR in untreated plasma and tumor tissues were prepared (separately). For FGAR quantification, supernatants (2 μL) were injected and separated on an UltiMate 3000 UHPLC coupled to a Q Exactive Focus Orbitrap mass spectrometer. Samples were separated on an Agilent Eclipse Plus C18 RRHD (1.8 μm) 2.1 × 100 mm column. The mobile phase consisted of 8 mmol/L dimethylhexylamine (DMHA) + 0.005% formic acid in water, pH 9 (A), and 8 mmol/L DMHA in acetonitrile (B). […] Quantification was performed in full MS negative mode. Data were acquired and quantified with Xcalibur software.
Glutamine analysis took place on an Agilent 1290 UPLC coupled to an Agilent 6520 quadrupole time-of-flight mass spectrometer. Samples (2 μL) were injected and separated on a Waters Acquity UPLC BEH Amide 1.7 μm 2.1 × 100 mm HILIC column with a flow rate of 0.3 mL/min. The mobile phases consisted of A (water +0.1% formic acid) and B (acetonitrile + 0.1% formic acid). The mass spectrometer was run in positive ion mode. Standard curves for FGAR and glutamine were fitted using a blank subtraction method[47] to compensate for the presence of endogenous analyte levels in naïve matrixes.

[2] = Aqueous solubility assay in PBS buffer (pH 7.4); assay type: physicochemical
Description: (§1) The aqueous solubility was determined as previously reported with minor modifications.[48] Briefly, an excess amount of P11 or DRP-104 was added to PBS buffer (pH 7.4) and sonicated for 1 h at 37 °C to ensure saturation. After 1 h, the solution was filtered (0.45 μm PTFE), and the filtrate was diluted appropriately, and the concentration of each analyte was determined via LC–MS. Chemical stabilities of DRP-104 and P11 were done as previously described[18] with modifications. For chemical stability, prodrugs were spiked (10 μM) in buffer at pH 7.4 and incubated at 37 °C for 24 h. Prodrug disappearance was monitored using the developed HRMS methods.

[3] = tested on: P493B lymphoma cells; experiment: Cell viability assay; assay type: cell-based; conditions: Homo sapiens, 72 h, 72 h incubation
Description: Cell proliferation assays were performed as we have previously described.[19] Briefly, P493B lymphoma cells were plated in 96-well plates at a density of 20 000 cells/well in a final volume of 100 μL of growth media. P11, or DRP-104, was added to cells in half-log serial dilutions with a final concentration of 0.2% DMSO. Cells were allowed to proliferate for 72 h, and thereafter, 20 μL of CellTiter 96 AQueous (Promega no. 3580) was added per well and incubated for 2 h. Absorbance was measured at 490 nm. Relative cell viability was calculated from the difference between untreated cell wells (100%) and media well without cells (0%).

[4] = Chemical (aqueous) stability in buffer pH 7.4; assay type: physicochemical; conditions: 10 μM; pH 7.4 PBS; 37 °C; 24 h; HRMS/LCMS
Description: as §1

[5] = Metabolic stability in mouse plasma
[6] = Metabolic stability in mouse intestinal homogenate (GIh)
[7] = supplementary CSV, unit not given, matches Table 1 % remaining at 1 h, in %

CN(C)CC(=O)N[C@@H](Cc1ccccc1)C(=O)N[C@@H](CCC(=O)C=[N+]=[N-])C(=O)OC(C)(C)C [Prodrug P11, tert-Butyl (S)-6-Diazo-2-((S)-2-(2-(dimethylamino)acetamido)-3-phenylpropanamido)-5-oxohexanoate]
fold increase in tumor FGAR compared with vehicle ([1]; 30 min): 150 | fold rise in tumor glutamine compared with vehicle ([1]; 30 min): ~2 | tumor FGAR level ([1]; 30 min post dose (Tmax)): 1040 ± 179 nmol/g | tumor glutamine level ([1]; 30 min post dose (Tmax)): 1710 ± 173 nmol/g | solubility at 1 h ([2]; PBS buffer pH 7.4, 37 °C, 1 h): 8100 ± 1100 µg/mL (≈ 17.6 mM) | fold solubility improvement compared to DRP-104 ([2]; buffer pH 7.4): 33 and > 30 | EC50 [3]: ~300 nM | chemical stability in buffer [4]: remained intact without any degradation; also recorded: no degradation | remaining at 1 h, 10 µM ([5]; CES1–/–, mouse, plasma): 93 ± 1% | Plasma [5, 7]: 93 ± 1 | remaining at 1 h, 10 µM ([6]; CES1–/–, mouse, intestinal homogenate): 78 ± 2% | Intestinal homogenate [6, 7]: 78 ± 2
